One experiment relates to hiPSCs. In words: Directed differentiation of hiPSCs into HE (KDR+), HP (CD34+) and iNK (CD56+) cells, flow cytometry. Format: cell-based, human. As to conditions: for output of CD34^+ HP cells / output of CD56^+ iNK cells: added during Stage 1-4 (XAV939 5 μM, SB431542 6 μM); for output of CD34^+ HP cells: Day 10, vs control without both (FIG. 8A); for output of CD56^+ iNK cells: Day 25, vs control without both (FIGS. 8B, 8C). The procedure:
hiPSCs were prepared as described in CN108373998B. The effect of plate coating during Stage 2 on iNK differentiation was further evaluated. On Day −1, Embryoid body (EB) formation (Stage 1-1) was carried out by placing individualized hiPSCs in E8 medium containing 10 μM Blebbistatin in T25 flasks on a bellydancer and culture overnight. On Day 0, lateral mesoderm differentiation (Stage 1-2) was initiated by changing the medium to a Stage 1-2 differentiation medium comprising CD34A basal medium and supplemented with BMP4 (25 ng/mL), VEGF (15 ng/mL), bFGF (0.5 ng/mL) and CHIR99021 (4 μM) for 2 days. On Day 2, lateral mesoderm differentiation (Stage 1-3) continued for 1 day in a Stage 1-3 differentiation medium comprising CD34A basal medium and supplemented with BMP4 (25 ng/mL), VEGF (15 ng/mL) and bFGF (0.5 ng/mL) and CHIR99021 (4 μM). On Day 3, HE specification (Stage 1-4) was initiated by adding a Stage 1-4 differentiation medium comprising CD34A basal medium and supplemented with insulin (5 μg/mL), VEGF (15 ng/mL), bFGF (5 ng/mL), SB431542 (6 μM) for 1 day. On Day 4 (the end of Stage 1-4), HP differentiation (Stage 1-5) in was initiated by adding a Stage 1-5 differentiation medium comprising CD34A basal medium and supplemented with SCF (10 ng/mL), Flt3L (10 ng/mL), VEGF (15 ng/mL) and bFGF (5 ng/mL). To initiate the differentiation from HP cells into iNK cells (Stage 2), EBs of Day 11 were collected and seeded in 24-well-plates without matrix or coated with DLL4 and VCAM1, in a Stage 2 differentiation medium comprising NKSFM and supplemented with SCF (20 ng/mL), Flt3L (10 ng/mL), IL-7 (25 ng/mL), IL-3 (5 ng/mL), IL-15 (10 ng/mL) for 14 days. On Day 25 (Stage 2-wk2), derived cells were counted and stained with CD56-PE antibody, the percentage of CD56+ iNK cells was detected by flow cytometry. […] The differentiation from hPSCs to immature iNK cells was accomplished in only 26 days. Furthermore, the percentage of CD56+CD3−iNK cells at the end of Stage 2 is as high as 80.56% when differentiation was performed with NKSFM and DLL4/VCAM1.
hiPSCs were prepared as described in CN108373998B. On Day −1, Embryoid body (EB) formation (Stage 1-1) was carried out by placing individualized hiPSCs in E8 medium containing 10 μM Blebbistatin in T25 flasks on a bellydancer and culture overnight. On Day 0, lateral mesoderm differentiation (Stage 1-2) was initiated by changing the medium to a Stage 1-2 differentiation medium comprising IF-4 basal medium and supplemented with BMP4 (25 ng/mL), VEGF (50 ng/mL), bFGF (0.5 ng/mL) and CHIR99021 (4 μM) for 2 days. On Day 2, lateral mesoderm differentiation (Stage 1-3) continued for 1 day in a Stage 1-3 differentiation medium comprising IF-4 basal medium and supplemented with BMP4 (25 ng/mL), VEGF (50 ng/mL) and bFGF (0.5 ng/mL) and CHIR99021 (1 μM). On Day 3, HE specification (Stage 1-4) was initiated by adding a Stage 1-4 differentiation medium comprising IF-4 basal medium and supplemented with VEGF (50 ng/mL), bFGF (5 ng/mL), and without or with XAV939 (5 μM) and/or SB431542 (6 μM) for 1 day. On Day 4, HP differentiation (Stage 1-5) was initiated by adding a Stage 1-5 differentiation medium comprising NKSFM and supplemented with SCF (50 ng/mL), Flt3L (10 ng/mL), VEGF (15 ng/mL) and bFGF (5 ng/mL) for 6 days. On Day 10 (the end of Stage 1), EBs were dissociated into single cells and stained with CD34-APC antibody (BD, #555824), the percentage of CD34^+ HP cells was detected by flow cytometry. To initiate the differentiation from HP cells into iNK cells (Stage 2), EBs were collected and seeded in 24-well-plates coated with matrix proteins, DLL4 and VCAM1, in a Stage 2 differentiation medium comprising NKSFM and supplemented with SCF (20 ng/mL), Flt3L (10 ng/mL), IL-7 (25 ng/mL), IL-3 (5 ng/mL), IL-2 (700 IU/mL), IL-15 (10 ng/mL) for 15 days. On Day 25 (the end of Stage 2), derived cells were counted and stained with CD56-PE antibody (BD, #555516), the percentage of CD56^+ iNK cells was detected by flow cytometry. […]
For orientation: A flow cytometer gives signals particle by particle.

For the next experiment, the system named is PBNK cells. The experiment is described as follows: Expansion of PBNK cells from PBMCs (NK cell expansion fold; CD56+CD3− % by flow cytometry). Format: cell-based. As to conditions: NAM 0-5 mM in basal medium. As for the experimental part:
The effect of the concentration of nicotinamide (NAM) in an exemplary basal medium on NK cell expansion was evaluated. The above basal medium comprised the following components: IMDM (Sigma): RPMI1640 (Gibco) (50%: 50%); about 1.3 ng/mL of Cupric sulfate, about 3 μM of Ferric sulfate, about 0.432 μg/mL of Zinc sulfate, about 1-50 ng/mL of Na Selenite, about 110 μg/mL of Sodium pyruvate, 0.1-20 μg/mL of Insulin, 1-200 μg/mL of Transferrin, about 1%(v/v) of GlutaMAX-1, 0.1-20 mg/mL of HSA, 1-400 μM of MTG, about 80 μg/mL of Ascorbic acid and indicated concentration of NAM. Peripheral blood mononuclear cells (PBMCs) were isolated by density gradient centrifugation using Ficoll-Paque. On Day 0, PBMCs were plated at 1×10^6 cells/mL in a 48-well-plate in the basal medium with NAM (either 0, 1, 2, 2.5, 3, 3.5, 4, or 5 mM) and stimulated with the following reagents for 3 days: immobilized CD16 antibody (Biolegend, 302014) (135 ng/cm^2), IL-2 (700 IU/mL), IL-15 (10 ng/mL) and OK432 (0.01 KE/mL). On day 3, cells were re-suspended in the above basal medium supplemented with IL-2 (700 IU/mL) and IL-15 (10 ng/mL). Fresh medium was added every other day to maintain cell density below 2×10^6 cells/mL. Cells were collect on Day 14 and stained with CD56-PE and CD3-PerCP-Cy5.5 antibodies, the percentage of CD56^+CD3^− NK cells was analyzed by flow cytometry.
The effect of heparin sodium concentration in an exemplary NKSFM on NK cell expansion was also evaluated. NKSFM comprised the following components: IMDM (Sigma): DMEM/F12 (Gibco) (50%: 50%); about 20 μM of Ethanolamine, about 1-50 ng/mL of Na Selenite, about 110 μg/mL of Sodium pyruvate, 0.1-20 μg/mL of Insulin, 1-200 μg/mL of Transferrin, about 1%(v/v) of GlutaMAX-1, 0.1-20 mg/mL of Human serum albumin, 1-400 μM of MTG, about 80 μg/mL of Ascorbic acid, about 1-5 mM of NAM, 4%(v/v) of PLT, and indicated concentration of heparin sodium. PBMCs were isolated by density gradient centrifugation using Ficoll-Paque. On Day 0, PBMCs were plated at 1×10^6 cells/mL in a 48-well-plate in NKSFM with heparin sodium (0, 0.5, 1, 3, 10, 30, or 50 μg/mL) and stimulated with the following reagents for 3 days: immobilized CD16 antibody (Biolegend, 302014) (135 ng/cm^2), OK432 (0.01 KE/mL), NeoIL-2 (50 ng/mL), IL-12 (10 ng/mL), IL-18 (50 ng/mL). […] Cells were collect on Day 13 and stained with CD56-PE and CD3-PerCP-Cy5.5 antibodies, the percentage of CD56^+CD3^− NK cells was analyzed by flow cytometry. The specific lysis of K562 tumor cells by NK cells were assessed by CFSE/7-AAD cytotoxicity assay. […] After incubation for 4 hours, cells were stained with 7-AAD (Live/dead staining) and analyzed with flow cytometry.
The effect of PLT percentage (v/v) in an exemplary NKSFM on NK cell expansion was evaluated. […]

[1] abbreviates: higher VEGF concentration during Stage 1-5.

The text below walks through data of patent US20240316196A1, “METHODS AND COMPOSITIONS FOR DIFFERENTIATION OF PLURIPOTENT STEM CELLS AND DERIVED NATURAL KILLER CELLS” (NUWACELL BIOTECHNOLOGIES CO., LTD., priority 2022, published 2024).

With `Oc1nc(-c2ccc(C(F)(F)F)cc2)nc2c1CSCC2` [XAV939], in the experiment with hiPSCs, the “output of CD34^+ HP cells” value is reported as “significantly promotes” and the “output of CD56^+ iNK cells” value is reported as “significantly promotes”.
With `Cc1c[nH]c(-c2cnc(NCCNc3ccc(C#N)cn3)nc2-c2ccc(Cl)cc2Cl)n1` [CHIR99021], the “differentiation into CD34+ HP cells” value in the experiment on hiPSCs (higher concentration during Stage 1-2 (5, 6, 7, 8 μM), Day 7 (FIG. 9A)) is reported as “generally more advantageous”; with hiPSCs (lower concentration during Stage 1-3 (0-4 μM), Day 7 (FIG. 10A)) it was “somewhat disadvantageous”. The “differentiation into CD56+ iNK cells” value in the experiment on hiPSCs (higher concentration during Stage 1-2 (5, 6, 7, 8 μM), Day 24 (FIGS. 9B, 9C)) was “somewhat disadvantageous”; with hiPSCs (lower concentration during Stage 1-3 (0-4 μM), Day 24 (FIGS. 10B, 10C)), “generally more advantageous”.
As to `NC(=O)c1ccc(-c2nc(-c3ccc4c(c3)OCO4)c(-c3ccccn3)[nH]2)cc1` [SB431542], in the experiment on hiPSCs, the “output of CD34^+ HP cells” value is “improvement in increasing CD34^+ HP cell production at a certain degree” and the “output of CD56^+ iNK cells” value is reported as “does not show any improvement”.
`NC(=O)c1cccnc1` [NAM, nicotinamide]: the “NK cell expansion fold, effect of concentration” value in the experiment on PBNK cells (Day 14 (FIG. 2A)) is “significantly impacts”. The “percentage of CD56^+CD3^− NK cells, effect of concentration” value with PBNK cells (Day 14 (FIG. 2B)) is listed as “minimal effects”.
On to VEGF, for which the “HP and iNK cell differentiation” value with hiPSCs (Example 12: higher concentration during Stage 1, especially Stage 1-2, 1-3 and 1-4 (Table 3.2, FIG. 12)) is listed as “significantly improves”. Moreover, the “percentage of KDR+ HE cells, effect of concentration” value with hiPSCs (VEGF 15-100 ng/mL in Stage 1 substages (Table 3.1), Day 4 (FIG. 11A)) was “minimal effects”. The “percentage of CD34+ HP cells, effect of concentration” value with hiPSCs (VEGF 15-100 ng/mL in Stage 1 substages (Table 3.1), Day 10 (FIG. 11B)) is reported as “significantly impacts”. Moreover, the “efficiency of further differentiation into iNK cells, effect of concentration” value in the experiment on hiPSCs (VEGF 15-100 ng/mL in Stage 1 substages (Table 3.1), Day 24 morphology (FIG. 11C)) was “significantly impacts”. The “differentiation into HP cells and iNK cells” value in the experiment with hiPSCs (higher VEGF concentration during Stage 1-2 and Stage 1-3) is reported as “generally beneficial”. Moreover, in the experiment on hiPSCs (setting [1]), the “differentiation into HP cells” value is on record as “generally beneficial” and the “differentiation into iNK cells” value is “not into iNK cells”.
